From patent US20030133874A1, “Analytical method to evaluate animal models of neurofibrillary degeneration” (priority 2002, published 2003)

Tests used:
tau [1] = experiment: Induction of tau hyperphosphorylation in rat hippocampal brain slices, immunoblot; assay type: cell-based
Procedure: Freshly prepared hippocampal brain slices from adult Long-Evans rats were incubated under oxygenation in a physiological buffer for 1 hr with increasing concentrations of okadaic acid. Slices were homogenized in an ice-cold stop buffer by brief ultrasonication, and supernatants were boiled and analyzed for heatstable tau proteins by immunoblotting with reference mAbs Tau-1, AT8, and PHF-1 (FIG. 4a), and AP422 (FIG. 4b).
Adult male Long-Evans rats were anesthesized with CO2 and decapitated. Brains were removed within 2 min and the hippocampus was dissected using a blunt spatula. Hippocampi were cut into […] slices using a Mcllwain tissue chopper and placed into ice-cold low Ca^2+ Krebs-Bicarbonate buffer (pH 7.0): 124 mM NaCl, 3.33 mM KCl, 0.01 mM Ca^2+, 1.25 mM KH2P04, 1.33 mM MgS04, 25.7 mM NaHCO3, 10 mM D-Glucose, 20 mM HEPES. 5-8 slices were placed into a tube with 5 ml of low Ca^2+ buffer and incubated for at least 30 min at 33-34° C. with water saturated oxygenation (95% O2, 5% CO2.). After 30 min the solution was replaced with a buffer containing a physiological level of Ca^2+ (1.3 mM) and incubated for an additional 30 min. […] Aliquots of heat-stable supernatants, normalized for protein content, were analyzed on 10% SDS-PAGE, followed by immunoblotting with mAbs AT8 (1:200) and AP422 (1:5,000). […]

tau [2] = experiment: Tau hyperphosphorylation in vivo after intracerebral injection into nucleus basalis, immunoblot; settings: rat nucleus basalis
Procedure: a) Analysis with mAbs Tau-1 and AT8. […] Brains were surgically removed, the nucleus basalis dissected and homogenized in ice-cold stop buffer after 30 to 360 min. Heatstable supernatants were immunoblotted with Tau-1, AT8, and Tau-1 after dephosphorylation on the blot for normalization purposes.
b) Relevant areas of immunoblots developed with ECL were scanned densitometrically and AT8 signals normalized to Tau-1 signals of phosphatase-treated blots. Results represent triplicate experiments, P values were determined by ANOVA.
c) Aliquots of extracts of vehicle and okadaic acid injected nuclei basali were immunoblotted with mAb AP422.
Male or female Long-Evans rats at approximately 3 to 4 months of age were housed in pairs with food and water available ad libidum. […] The tissue was held out of the operating field with forceps and the areas of injection were marked. Openings were made through the skull using a dentists drill and a number 5 carbide bur. […]
Heat-stable supernatants of triplicate experiments were analyzed by immunoblotting with AT8 (FIG. 5a) and AP422 (FIG. 5c). AT8 signals were quantitated after normalization to Tau-1 immunoreactivity on phosphatase-treated blots as described in example 3. […]

tau [3] = experiment: Tau phosphorylation in rat brain after prolonged pentobarbital anesthesia, immunoblot of heat-stable extracts; settings: rats, five hours after 65 mg/kg
Source text: The animals at 5 hrs after the first anesthesia had to be anethesized a second time, as they had regained full consciousness. […] Recovered brains were homogenized and supernatants processed for immunoblotting with AT8 and Tau-1 as before. To normalize signal intensity with phosphorylation-dependent mAbs to total amount of tau protein present in each extract (specific labelling) sister blots with a five-fold reduced load of extract protein were subjected to exhaustive dephosphorylation with calf intestinal alkaline phosphatase prior to staining with Tau-1. Blots were developed by ECL and relevant areas of the blots were scanned densitometrically. […]
A second dose of anesthetic was administered immediately prior to brain removal when excision occurred two hours or more after the first anesthesia. Cortices were processed and tau proteins analyzed by Western-blotting as in Example 2, using mAbs Tau-1 and AT8. To allow quantitative immunochemical evaluation of tau phosphorylation sister blots of all samples with a five-fold lower protein load were subjected to exhaustive dephosphorylation to provide a relative measure for total load of tau protein using Tau-1 staining. […] Signals were captured on KODAK X-OMAT scientific imaging film and quantitated by densitometric scanning and image analysis with NIH image 1.44. […]

| Compound | tau hyperphosphorylation detected with AT8 (tau [1]; freshly prepared rat brain slices) | AP422 reactivity of tau (tau [1]; rat hippocampal brain slices, increasing concentrations) | specific effect on normalized AT8 signal (tau [2]; 30 to 360 min after injection) | in vivo tau hyperphosphorylation detected with AP422 (tau [2]; individual animals) | autonomous signs after regaining consciousness (tau [3]) |
| --- | --- | --- | --- | --- | --- |
| C=C1[C@@H](O)[C@@H]2O[C@]3(CC[C@H](/C=C/[C@@H](C)[C@@H]4CC(C)=C[C@@]5(O[C@H](C[C@@](C)(O)C(=O)O)CC[C@H]5O)O4)O3)CC[C@H]2O[C@@H]1[C@@H](O)C[C@H](C)[C@H]1O[C@@]2(CCCCO2)CC[C@H]1C [okadaic acid] | tau hyperphosphorylation induced | induced | impossible to discern | does not always occur |  |
| CCCC(C)C1(CC)C(=O)NC(=O)NC1=O (centres unmarked) [pentobarbital] |  |  |  |  | no abnormal autonomous signs |
